Activity calls are given as the source filed them. The rule behind the calls is not given here.
Legend:
Phytophthora capsici [1] = assay: Insecticidal activity against Phytophthora capsici in Cucurbita pepo assessed as reduction of disease severity under greenhouse condition at 25 to 50 ug/ml after 1 week; format: functional, organism-based
Phytophthora capsici [2] = assay: Insecticidal activity against Phytophthora capsici assessed as inhibition of mycelial growth by measuring perpendicular colony diameter at 25 to 2000 ug/ml after 8 days; format: functional, organism-based
Phytophthora capsici [3] = assay: Insecticidal activity against 10^4 spores/ml of Phytophthora capsici in Cucurbita pepo assessed as reduction of disease severity under greenhouse condition at 25 to 50 ug/ml applied as foliar spray after 1 week; format: functional, organism-based
Phytophthora capsici [4] = assay: Insecticidal activity against Phytophthora capsici assessed as inhibition of zoospore germination at 500 to 1000 ug/ml after 4 days with 16 hr photoperiod; format: functional, organism-based
Phytophthora capsici [5] = assay: Insecticidal activity against 10^3 spores/ml of Phytophthora capsici in Cucurbita pepo assessed as reduction of disease severity under greenhouse condition at 25 to 50 ug/ml applied as foliar spray after 1 week; format: functional, organism-based
Phytophthora capsici [6] = assay: Insecticidal activity against Phytophthora capsici in Cucurbita pepo assessed as effect on host weight and height under greenhouse condition at 25 to 50 ug/ml; format: functional, organism-based
Phytophthora capsici [7] = assay: Insecticidal activity against Phytophthora capsici assessed as inhibition of sporangium production after 4 days; format: functional, organism-based
Cucurbita pepo [8] = assay: Phytotoxicity in Cucurbita pepo (pumpkin) assessed as effect on host weight and height under greenhouse condition at 50 ug/ml; format: organism-based; details: in vivo
Phytophthora capsici [9] = assay: Insecticidal activity against Phytophthora capsici assessed as inhibition of sporangium production at 500 to 1000 ug/ml after 4 days; format: functional, organism-based
Phytophthora capsici [10] = assay: Insecticidal activity against Phytophthora capsici assessed as inhibition of zoospore germination at 25 to 1000 ug/ml after 4 days with 16 hr photoperiod; format: functional, organism-based
Cucurbita pepo [11] = assay: Toxicity in Cucurbita pepo (pumpkin) assessed as effect on host weight and height under greenhouse condition at 25 to 50 ug/ml; format: organism-based; details: in vivo
Phytophthora capsici [12] = assay: Insecticidal activity against Phytophthora capsici assessed as inhibition of sporangium production at 25 to 1000 ug/ml after 4 days; format: functional, organism-based

SMILES	Activity (Phytophthora capsici [1])	inhibition (Phytophthora capsici [2])	Activity (Phytophthora capsici [3])	inhibition (Phytophthora capsici [4])	Activity (Phytophthora capsici [5])	Activity (Phytophthora capsici [6])	inhibition (Phytophthora capsici [7])	Activity (Cucurbita pepo [8])	inhibition (Phytophthora capsici [9])	inhibition (Phytophthora capsici [10])	Activity (Cucurbita pepo [11])	inhibition (Phytophthora capsici [12])
O=C(O)c1cc(Cl)nc(Cl)c1 [2,6-DICHLOROISONICOTINIC ACID]	Active	Active	Active	Active	Active	Active	Dose-dependent effect	Toxic	–	–	–	–
CSC(=O)c1cccc2nnsc12 [ACIBENZOLAR-S-METHYL]	Active	inactive	Active	–	Active	Active	–	Toxic	Active	inactive	–	–
CC(N)CC(=O)O (racemic)	Active	inactive	–	–	Active	Active	–	Non-toxic	–	inactive	Non-toxic	inactive
O=C(O)c1ccccc1O [SALICYLIC ACID]	–	–	–	Active	–	Active	–	–	–	–	Non-toxic	–

— ChEMBL document CHEMBL3044847, “Evaluation of systemic acquired resistance inducers for control of Phytophthora capsici on squash” (Crop Prot, 2009)
